Source: US20230202981A1, “NOVEL SMALL MOLECULES FOR TARGETED DEGRADATION OF UNTARGETABLE KRAS IN CANCER THERAPY” (Pillai Universal LLC, priority 2020, published 2023)

Legend:
[1] = Pharmacokinetics in rats; type: in vivo
[2] = tested on: miR-30c and miR-21 in mutant KRAS; experiment: miR-30c and miR-21 and tumor suppressor gene expression (microarray analysis); type: cell-based
Description: The effect of Compound 1 on the expression of miR 30c and miR-21 in mutant form of KRAS and Wild type was observed. […] Based on these observation our molecules targets miRNA in KRAS mutant model which acts as an attractive therapeutic tools in cancer medicine, because these miRNA that can silence multiple gene(s) and therefore switch off different pathways simultaneously, which is not possible with protein-based drugs and other covalent inhibitor of different KRAS mutant form, and eventually Compound 1 has no toxicity or off target effects compared to other standard drugs

For CCCCc1ncc(C(=O)C2CC=C(C(N)=O)N2)cc1C(=O)OCC (stereo not drawn) [Compound 1], the Cmax ([1]; rat, 10 mg/kg b.wt) was “Cmax = 1.9 μg/mL (10 mg/kg b.wt rat)”, the T1/2 ([1]; rats) was “T1/2 = 9.8 h (rats)” and the T max ([1]; rats, 10 mg/kg b.wt) was “T max = 2 h (rats, 10 mg/kg, b.wt; )”. It also gave a miR21 expression ([2]; control 0.72 ± 0.02) of 1.58 ± 0.32, a miR30c expression ([2]; control 0.96 ± 0.025) of 1.89 ± 0.25 and an NF1 expression ([2]; control 1.56 ± 0.06) of 1.21 ± 0.033. The BID expression ([2]; control 1.56 ± 0.36) was 0.32 ± 0.012, the RASA1 expression ([2]; control 1.69 ± 0.36) was 0.32 ± 0.031 and the “expression of miR 30c and miR-21” value ([2]; mutant form of KRAS, microarray analysis) was “significantly reduced”.
